According to patent US20230190835A1, “PROBIOTIC BACTERIA FOR TREATING ALZHEIMER'S DISEASE” (RRW B.V., priority 2020, published 2023):

System: C. elegans nematode strain with inducible amyloid-β accumulation (CL4176)
Assay: Alzheimer's disease paralysis assay
Type: in vivo
Text: The effect of probiotic bacteria and their combinations with other active agents has been studied in C. elegans nematode strains as an animal model for amyloidoses such as Alzheimer's disease. These strains accumulate amyloid-β peptides that form plaques in the nematodes and lead to paralysis of the animals. In certain strains, such as strain CL4176, Aβ accumulation occurs only in response to heat shock. Thus, the Alzheimer's disease pattern is inducible in these strains. The number of paralyzed nematodes after a certain period of time following induction of Aβ accumulation indicates the extent of Alzheimer's disease. Thus, the effect of certain substances to which the nematodes are exposed on the number of paralyzed animals is a measure of the anti-Alzheimer effect of these substances.
Nematodes of strain CL4176 were synchronized at the young larval stage and allowed to grow to the L4 stage on normal growth medium for 72 h at 16° C. The probiotic bacteria to be tested were added to the growth medium. Then the nematodes were exposed to the test substance and the temperature was increased to 25° C. This heat shock induced Aβ accumulation, simulating the onset of Alzheimer's disease. Approximately every 24 h, the number of animals that were still mobile and those that were paralyzed as a result of Aβ accumulation was determined.
C. elegans of strain CL4176 were exposed to a mixture of different probiotic bacteria at a bacterial concentration of 50 cfu (colony-forming units) in this assay. The bacterial mixture contained the following bacterial species: Enterococcus faecium, Bifidobacterium longum, Streptococcus thermophilus, Lactobacillus acidophilus, Lactobacillus plantarum and Bifidobacterium breve. […] In another series of tests, the nematodes were additionally treated with cannabidiol (CBD).
The two probiotic bacterial strains Lactobacillus rhamnosus and Lactobacillus plantarum were allowed to grow to stationary phase and mixed with the normal diet of nematodes (OP50) E. coli bacteria). C. elegans of strain CL4176 at L4 larval stage were exposed to the probiotic bacteria and other active agents in the induction of Aβ accumulation by increasing the temperature to 25° C. The number of paralyzed animals was checked every 24 h and determined after 96 h.
In the described Alzheimer's disease animal model assay, the effect of the bacterial strain Pseudomonas fluorescens was tested. Upon induction of Aβ accumulation by increasing temperature to 25° C., nematodes were exposed to Pseudomonas fluorescens bacteria, curcumin or CBD, or a combination of the bacteria and the active agent. The number of paralyzed nematodes was determined 96 h after induction of Aβ accumulation.

CCCCCc1cc2c(c(O)c1C(=O)O)[C@@H]1C=C(C)CC[C@H]1C(C)(C)O2 [THCA, delta-9-tetrahydrocannabinolic acid]
number of paralyzed nematodes (60 μl, 96 h, FIGS. 3 and 4): reduced

Lactobacillus plantarum
paralysis due to Aβ accumulation (bacteria grown to stationary phase, mixed with OP50 E. coli diet, 96 h, FIGS. 3 and 4): reduction in paralysis | prevention of the effects of Aβ accumulation by combination of bacterium with active agents (stationary-phase bacteria combined with curcumin, CBD, THCA or combinations thereof, 96 h, FIGS. 3 and 4): significant to synergistic prevention of the effects of Aβ accumulation

C=C(C)[C@@H]1CCC(C)=C[C@H]1c1c(O)cc(CCCCC)cc1O [CBD, cannabidiol]
number of paralyzed nematodes (0.08% (v/v), 96 h, FIGS. 3 and 4): reduced | paralytic nematodes, individually (Example 3, 96 h after induction of Aβ accumulation, FIGS. 7 and 8): reduction in paralytic nematodes | effect of combination with Pseudomonas fluorescens (combination of Pseudomonas fluorescens and active agent, 96 h after induction of Aβ accumulation, FIGS. 7 and 8): strong synergistic increase in effect | effect of additional treatment with the active agent on the effect of the probiotic bacterial mixture (in combination with probiotic bacterial mixture, 72 h after induction of Aβ accumulation, FIG. 1): significantly increased the effect of probiotic bacteria
